Laboratory results from patent US6774123B1, “Methods and compositions for inactivating viruses” (priority 1998, dated 2004).

Experiments:
[1] = test system: Porcine Parvovirus (PPV); experiment: Inactivation of porcine parvovirus (PPV), TCID50 titer on PT-1 cells; format: cell-based; settings: dropped from 7.1 logs, 3 hours, room temperature, dimer 0.1%, detergent = 1% Tween 80, 0.3% TNBP (FIG. 3)
Procedure: PPV is a non-enveloped virus; it is known to be inactivated with ethyleneimine dimer. The ability of ethyleneimine dimer to inactivate PPV in the presence of a solvent-detergent mixture was determined as follows.
A detergent stock solution (1% Tween 80, 0.3% TNBP in 0.1 M MOPS, 50 mM NaCl, pH 7.0) was prepared. A 5% dimer stock solution was prepared with 250 μl of 0.1 M MOPS, NaCl 50 mM, pH 7.0, and 12.5 μl dimer (ethyleneimine dimer, Dalton Chemical Laboratories, Inc., lot number LB-4-69A-03319). In addition, a quenching solution with a sodium thiosulphate concentration of 0.1M in 0.1 M MOPS, pH 7.0, was prepared.
(a) 9 ml 0.1 M MOPS, 50 mM NaCl, pH 7.0 was combined with 200 μl dimer stock solution. 1.0 ml PPV (PPV stock #1 filtered through 0.22μ filter) was added. The concentration of dimer in the resulting solution was 0.1%. The mixture was incubated at room temperature for a given period of time (0-3 hours). After the given time period, 1.85 ml of the solution was removed, and 0.15 ml quenching solution was added. Quenching occurred over a period of 30 minutes at room temperature. The concentration of sodium thiosulphate in the final solution was […].
(b) 9 ml detergent stock solution was combined with 1.0 ml PPV. The mixture was incubated for 0-3 hours at room temperature. A 2 ml aliquot was removed at each time point for assay. […]

[2] = test system: bacteriophage MS2; experiment: Kinetics of bacteriophage MS2 infectivity inactivation; format: cell-based; settings: 1 mM trimer, 23° C., pH 7.13, after 30 minutes of incubation (FIG. 1)
Procedure: Ethyleneimine trimer is known to inactivate the infectivity of bacteriophage MS2. The ability of the trimer to inactivate the infectivity of MS2 in the presence of TNBP and Tween 80 was determined as follows.
A stock of bacteriophage MS2 (ATCC number 15597-B1) was prepared according to conventional procedures (D. L. Rogerson and G. Rushizky, Analytical Biochemistry 67: 675-678 (1975)). Purification was performed by sedimentation of bacteriophage in the presence of 6% polyethylene glycol (PEG 8000, USB) as described in K. Yamamoto and B. Alberts, Virology 40: 734-744 (1970).
Purified phage were suspended in 0.15 M NaCl solution (final bacteriophage stock titer was 5×10^13 pfu/ml) and stored at 4° C. The infectivity (titer) of phage suspension was determined by conventional bilayer technique on LB agar with the F^+ strain of Escherichia coli C-3000 (ATCC number 15597).
Ethyleneimine trimer was prepared as described above. […]
Aliquots of the reaction mixture incubated at 23° C. were taken at five defined time intervals. MS2 infectivity inactivation (log S0/St, where S0 and St are the infectivity (titer) of the suspension before and t min after the start of inactivation) was determined at these five points.

For `NCCN1CC1` [dimer, ethyleneimine dimer], the “titer of the virus (TCID50) after treatment” value [1] was 3.2 logs.
For `NCCNCCN1CC1` [trimer, ethyleneimine trimer], the “MS2 infectivity inactivation (log S0/St), trimer alone compared with trimer plus solvent-detergent” value [2] was “essentially the same infectivity inactivation”.
